From PubChem BioAssay AID248 (DTP/NCI, 2004)
Toxic doses and inconclusive results are not listed. Cut-off read from the data, not from the text of the source: active = T/C of 150% or more; inactive = T/C below 125%.

Tested on: L1210 leukemia ip in BDF1 mice, survival T/C
Test: NCI In Vivo Anticancer Drug Screen. Data for tumor model L1210 Leukemia (intraperitoneal) in B6D2F1 (BDF1) mice
Details: endpoint: mean survival time, higher = longer survival
How it was run: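 Mice bearing the transplanted tumor received compound or vehicle. Survival of the treated group was divided by that of the vehicle-treated control group to give the ratio.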

[1] = dose: 100.0 mg/kg/injection, schedule: Q01DX009 (ip), vehicle: Klucel (hydroxypropylcellulose) (HPC)
[2] = dose: 200.0 mg/kg/injection, schedule: Q01DX009 (ip), vehicle: Klucel (hydroxypropylcellulose) (HPC)
[3] = dose: 400.0 mg/kg/injection, schedule: Q01DX009 (ip), vehicle: Klucel (hydroxypropylcellulose) (HPC)
[4] = dose: 100.0 mg/kg/injection, schedule: Q01DX001 (ip), vehicle: carboxymethylcellulose (CMC)
[5] = dose: 200.0 mg/kg/injection, schedule: Q01DX001 (ip), vehicle: carboxymethylcellulose (CMC)
[6] = dose: 50.0 mg/kg/injection, schedule: Q01DX009 (ip), vehicle: saline
[7] = dose: 100.0 mg/kg/injection, schedule: Q01DX009 (ip), vehicle: saline
[8] = dose: 200.0 mg/kg/injection, schedule: Q01DX009 (ip), vehicle: saline
[9] = dose: 100.0 mg/kg/injection, schedule: Q01DX001 (ip), vehicle: saline
[10] = dose: 100.0 mg/kg/injection, schedule: Q04DX003 (ip), vehicle: saline
[11] = dose: 200.0 mg/kg/injection, schedule: Q04DX003 (ip), vehicle: saline
[12] = dose: 400.0 mg/kg/injection, schedule: Q04DX003 (ip), vehicle: saline
[13] = dose: 200.0 mg/kg/injection, schedule: Q01DX001 (ip), vehicle: saline
[14] = dose: 400.0 mg/kg/injection, schedule: Q01DX001 (ip), vehicle: carboxymethylcellulose (CMC)
[15] = dose: 25.0 mg/kg/injection, schedule: Q01DX009 (ip), vehicle: saline with Tween-80
[16] = dose: 50.0 mg/kg/injection, schedule: Q01DX009 (ip), vehicle: saline with Tween-80
[17] = dose: 100.0 mg/kg/injection, schedule: Q01DX009 (ip), vehicle: saline with Tween-80
[18] = dose: 200.0 mg/kg/injection, schedule: Q01DX009 (ip), vehicle: saline with Tween-80
[19] = dose: 400.0 mg/kg/injection, schedule: Q01DX009 (ip), vehicle: saline with Tween-80
[20] = dose: 400.0 mg/kg/injection, schedule: Q01DX001 (ip), vehicle: saline
[21] = dose: 100.0 mg/kg/injection, schedule: Q04DX002 (ip), vehicle: saline with Tween-80
[22] = dose: 100.0 mg/kg/injection, schedule: Q04DX002 (ip), vehicle: Klucel (hydroxypropylcellulose) (HPC)
[23] = dose: 200.0 mg/kg/injection, schedule: Q04DX002 (ip), vehicle: Klucel (hydroxypropylcellulose) (HPC)
[24] = dose: 400.0 mg/kg/injection, schedule: Q04DX002 (ip), vehicle: Klucel (hydroxypropylcellulose) (HPC)
[25] = dose: 50.0 mg/kg/injection, schedule: Q01DX001 (ip), vehicle: carboxymethylcellulose (CMC)

Measured: T/C

CCOC(=O)c1ccc(NC(=O)Nc2ccccc2C(=O)OC)cc1
inactive: [1] 110 % of control | [2] 100 % of control | [3] 94 % of control

CN(C)c1ncnc2c1ncn2C1CCC(CO)C1 (centres undefined)
inactive: [4] 105 % of control | [5] 96 % of control

C[P+]1(C)CC2OC2C1 (centres undefined)
inactive: dose: 12.5 mg/kg/injection, schedule: Q01DX009 (ip), vehicle: saline 91 % of control | dose: 25.0 mg/kg/injection, schedule: Q01DX009 (ip), vehicle: saline 102 % of control | [6] 94 % of control | [7] 91 % of control

COc1cc2c(cc1O)CCCCC2=O
inactive: [6] 92 % of control | [7] 104 % of control | dose: 100.0 mg/kg/injection, schedule: Q04DX003 (ip), vehicle: Klucel (hydroxypropylcellulose) (HPC) 97 % of control | [8] 119 % of control | dose: 200.0 mg/kg/injection, schedule: Q04DX003 (ip), vehicle: Klucel (hydroxypropylcellulose) (HPC) 102 % of control | dose: 400.0 mg/kg/injection, schedule: Q04DX003 (ip), vehicle: Klucel (hydroxypropylcellulose) (HPC) 94 % of control

CC(C)OC(=O)C#CC(=O)O
inactive: [9] 98 % of control

O=[N+]([O-])c1cccc(OCCCCOc2ccccc2)c1
inactive: [1] 98 % of control | [10] 100 % of control | [2] 101 % of control | [11] 101 % of control | [3] 102 % of control | [12] 95 % of control

CNC(=O)c1ccc(/C=C/c2c[nH]c3ccccc23)[n+](C)c1
inactive: [9] 97 % of control | [13] 95 % of control

CC(=O)Oc1ccc(Cl)cc1C=O
inactive: [9] 105 % of control | [13] 103 % of control

CCc1ccc(N=Nc2ccccc2)cc1
inactive: [4] 105 % of control | [5] 96 % of control | [14] 105 % of control

COc1ccc(/C=C2/CCOC2=O)cc1
inactive: dose: 12.5 mg/kg/injection, schedule: Q04DX002 (ip), vehicle: Klucel (hydroxypropylcellulose) (HPC) 99 % of control

O=C(Nc1ccccc1)C1=C(Nc2ccccc2)CSC1
inactive: [15] 109 % of control | [16] 100 % of control | [17] 94 % of control | [18] 98 % of control | [19] 89 % of control

O=[N+]([O-])c1ccc2nncn2c1
inactive: dose: 50.0 mg/kg/injection, schedule: Q01DX001 (ip), vehicle: saline 91 % of control | [9] 97 % of control | [13] 103 % of control | [20] 101 % of control

Cc1[nH]c2ccc(N=CN(C)C)cc2c1C
inactive: [21] 94 % of control

O=C1C=CC(=O)C1
inactive: dose: 2.25 mg/kg/injection, schedule: Q01DX009 (ip), vehicle: saline 111 % of control | dose: 2.25 mg/kg/injection, schedule: Q04DX003 (ip), vehicle: saline 97 % of control | dose: 4.5 mg/kg/injection, schedule: Q01DX009 (ip), vehicle: saline 106 % of control | dose: 4.5 mg/kg/injection, schedule: Q04DX003 (ip), vehicle: saline 98 % of control | dose: 9.0 mg/kg/injection, schedule: Q04DX003 (ip), vehicle: saline 96 % of control

CCOC(=O)CNc1cccc(C)c1
inactive: [22] 100 % of control | [23] 110 % of control | [24] 107 % of control

CC(O)Cn1cnc2c1c(=O)n(C)c(=O)n2C (centres undefined)
inactive: [7] 93 % of control | [10] 95 % of control | [8] 95 % of control | [11] 95 % of control | [12] 94 % of control

CNc1nc2c(=O)[nH]c(N)nc2n1C1OC(CO)C(O)C1O (centres undefined)
inactive: [25] 101 % of control | [4] 104 % of control | [5] 95 % of control | [14] 89 % of control

CC(C)Nc1ccc(O)cc1
inactive: [22] 106 % of control | [23] 95 % of control

COCCCN=C(N)N
inactive: dose: 50.0 mg/kg/injection, schedule: Q04DX003 (ip), vehicle: saline 98 % of control | [10] 104 % of control | [11] 104 % of control

CCOC(CN=CC1CCC=CO1)OCC (centres undefined)
inactive: dose: 100.0 mg/kg/injection, schedule: Q04DX003 (ip), vehicle: saline with Tween-80 91 % of control | dose: 200.0 mg/kg/injection, schedule: Q04DX003 (ip), vehicle: saline with Tween-80 96 % of control | dose: 400.0 mg/kg/injection, schedule: Q04DX003 (ip), vehicle: saline with Tween-80 95 % of control

c1ccc(N=Nc2ccc[nH]2)cc1
inactive: dose: 50.0 mg/kg/injection, schedule: Q01DX009 (ip), vehicle: acetone 98 % of control | dose: 100.0 mg/kg/injection, schedule: Q01DX009 (ip), vehicle: acetone 102 % of control

CC(C)OC(=O)C(C)OC(=O)C1CCCCC1 (centres undefined)
inactive: [9] 98 % of control | [13] 97 % of control | [20] 93 % of control

CCCCc1cn(S(=O)(=O)c2ccc(C)cc2)nn1
inactive: [21] 106 % of control | dose: 200.0 mg/kg/injection, schedule: Q04DX002 (ip), vehicle: saline with Tween-80 100 % of control | dose: 400.0 mg/kg/injection, schedule: Q04DX002 (ip), vehicle: saline with Tween-80 106 % of control

COC1=C(OC)C(=O)c2ccccc2C1=O
inactive: dose: 12.5 mg/kg/injection, schedule: Q01DX009 (ip), vehicle: Klucel (hydroxypropylcellulose) (HPC) 95 % of control | dose: 25.0 mg/kg/injection, schedule: Q01DX009 (ip), vehicle: Klucel (hydroxypropylcellulose) (HPC) 92 % of control | dose: 50.0 mg/kg/injection, schedule: Q01DX009 (ip), vehicle: Klucel (hydroxypropylcellulose) (HPC) 98 % of control

CCCCCCCCCCCCC(=O)N(CCC)CCC
inactive: [22] 98 % of control | [23] 98 % of control | [24] 102 % of control

CCCCCOC(=O)Nc1cccc(OC(=O)NC)c1
inactive: [17] 105 % of control | [18] 96 % of control | [19] 97 % of control

CC(C)N(C(=O)Nc1cccc(C(F)(F)F)c1)C1CCCCC1
inactive: dose: 100.0 mg/kg/injection, schedule: Q01DX009 (ip), vehicle: gum acacia 90 % of control | dose: 200.0 mg/kg/injection, schedule: Q01DX009 (ip), vehicle: gum acacia 98 % of control | dose: 400.0 mg/kg/injection, schedule: Q01DX009 (ip), vehicle: gum acacia 88 % of control

CCOC(=O)C1CC2(c3ccccc3)C(=O)C1(c1ccccc1)C(c1ccccc1)=C2c1ccccc1 (centres undefined)
inactive: [25] 100 % of control | [4] 94 % of control | [5] 100 % of control | [14] 97 % of control

Cc1nc(N)c(N)nc1C
inactive: dose: 12.5 mg/kg/injection, schedule: Q01DX009 (ip), vehicle: saline with Tween-80 112 % of control | [15] 101 % of control | dose: 25.0 mg/kg/injection, schedule: Q04DX003 (ip), vehicle: saline with Tween-80 106 % of control | [16] 101 % of control | dose: 50.0 mg/kg/injection, schedule: Q04DX003 (ip), vehicle: saline with Tween-80 101 % of control
